# Results published in patent publication US11795196B2, “Mitochondria-targeting peptides” (Stealth BioTherapeutics Corp., priority 2017, dated 2023).
# Experiments:
# isolated rat hearts = test: Ischemia-reperfusion injury, Langendorff isolated heart preparation; details: 30 min LAD occlusion + 120 min reperfusion, compound 1 μM in perfusion solution, mean
# rat = test: Rat Acute Kidney Injury (AKI) Model, renal ischemia-reperfusion; assay type: in vivo; design: concentration or dose not given beside the values; details: 30 minutes renal artery occlusion of both kidneys, 24 hours after reperfusion, relative to vehicle
# Experimental: The Rat Acute Kidney Injury (AKI) Model was performed by IPST Therapeutique Inc, Sherbrooke, Quebec, Canada. The animals were randomized in terms of even distribution between treatment groups based on their body weight by the Study Director with the aim of scheduling animal from each group at each day of surgery. The rats will be given free access to food and water. Experimental Procedures Induction of Ischemia-Reperfusion • 1. Rats will be anaesthetized with isoflurane USP (Abbot Laboratories, Montreal Canada) 2% in oxygen and placed on a heated pad to maintain body temperature. The ECG and oxygen saturation will be monitored for the entire surgical process. The body temperature will be monitored with a probe thermometer introduced into the abdomen, very close to the kidneys. • 2. A 1 mL blood draw will be taken from the jugular vein. The blood will be collected into lithium heparin tubes and centrifuged at 3000 rpm for 10 min. to obtain the plasma. The plasma will be separated into 200 μL aliquot and stored at −20° C. until dosage of biomarkers. • 3. The abdomen will be disinfected with providone iodine and alaparotomy will be performed. • 4. The kidneys will be exposed and a temporary suture will be placed around renal artery of the two kidneys. Renal ischemia will be visually confirmed by a gradual changed of the kidneys colour going from red to dark purple within a couple of minutes following the start of the ischemia. During the ischemia, the kidneys will be kept moist and warm using a heat lamp and sterile gauze soaked in warm (37° C.) saline. The temperature will be monitored with a probe thermometer introduced into the abdomen, very close to the kidneys. • 5. After 30 minutes of occlusion, the suture will be removed. • 6. The abdominal wounds will be closed with 4-0 silk suture, and the animal will be return to its cage. • 7. Twenty-four hours after reperfusion the rats will be re-anesthetized. A second blood draw will be taken as was done before the ischemia. • 8. Sham will be treated under same conditions as vehicle, except, kidneys will not be subjected to ischemic conditions. Detection of Biomarkers A 200 μL aliquot of plasma sample will be taken before the ischemia and 24 hours following the ischemia; both will be sent to the clinical laboratory of the CHUS (Centre Hospitalier Universitaire de Sherbrooke, Quebec, Canada) for detection of plasma level of creatinine (p.Cr) and Blood Urea Nitrogen (BUN). Computer Systems The following are the validated computer systems to be used during the conduct of this study. The analysis software will be Microsoft Office Excel 2007 installed on networked personal computers running Microsoft Windows8, XP Professional or Vista. Data Analysis Values are presented as means±SEM (standard error of the means) and presented by the symbol+on the graph. Repeat un-paired Student's t-tests were performed in Microsoft Excel 2007 on all experimental data. Differences were considered significant when p≤ 0.05. The vehicle group was compared to the sham group while the test article was compared to the vehicle group. The plasma creatinine post-UR (% mean of vehicle) was calculated using the following formula:
# [formula] Where: p.Cr=Plasma creatinine Mean Δ plasma creatinine in sham group=Mean (plasma creatinine 24 h post-isch.−plasma creatinine pre-isch.) in sham group Mean Δ plasma creatinine in vehicle group=Mean ((plasma creatinine 24 h post-inch.−plasma creatinine pre-isch.)−Mean Δ plasma creatinine in sham group) in vehicle group The BUN post-I/R (% mean of vehicle) was calculated using the following formula:
# [formula] […]
SMILES,"Infarct size, % of area at risk (isolated rat hearts)","White Necrotic Area, % of area at risk (isolated rat hearts; only white necrotic tissue)","BUN, % Protection, Mean (rat)","Plasma Creatinine, % Protection, Mean (rat)"
"Cc1cc(O)cc(C)c1C[C@H](NC(=O)[C@@H](CCN)NC(=N)N)C(=O)N[C@@H](CCCN)c1nc(Cc2ccccc2)no1 [Example 82, (R)-4-amino-N-((S)-1-(((5)-4-amino-1-(3-benzyl-1,2,4-oxadiazol-5-yl)butyl)amino)-3-(4-hydroxy-2,6-dimethylphenyl)-1-oxopropan-2-yl)-2-guanidinobutanamide]",42%,24%,25.5%,32.0%
"Cc1cc(O)cc(C)c1C[C@H](NC(=O)[C@H](N)CCCn1ccnc1N)C(=O)N[C@@H](CCCN)c1nc(CC2CCCCC2)no1 [Example 42, (R)-2-amino-N-((S)-1-(((S)-4-amino-1-(3-(cyclohexylmethyl)-1,2,4-oxadiazol-5 yl)butyl)amino)-3-(4-hydroxy-2,6-dimethylphenyl)-1-oxopropan-2-yl)-5-(2-amino-1H-imidazol-1-yl)pentanamide]",,,50.4%,53.4%
"Cc1cc(O)cc(C)c1C[C@H](NC(=O)[C@H](N)CCCNC(=N)N)C(=O)N[C@@H](CCCCN)c1nc(Cc2ccc(C(C)(C)C)cc2)no1 [Example 33, (R)-2-amino-N-((S)-1-(((S)-5-amino-1-(3-(4-(tert-butyl)benzyl)-1,2,4-oxadiazol-5 yl)pentyl)amino)-3-(4-hydroxy-2,6-dimethylphenyl)-1-oxopropan-2-yl)-5-guanidinopentanamide]",,,35.9%,38.9%
